Laboratory results as given in patent US20240350575A1, “PLANT EXTRACT FOR ALLEVATING PULMONARY FIBROSIS, AND PREPARATION METHOD AND USE THEREOF” (Guangdong GreenTech Lemon Innovations Co., Ltd., priority 2023, published 2024).

Columns and labels:
Format in all cases: in vivo, SD rats
[1] = test system: rat models of pulmonary fibrosis; assay: Hydroxyproline content in lung tissues of rat models of pulmonary fibrosis; conditions: lung tissue, bleomycin rats, after intragastric administration 5 mL/kg daily for 28 d
Method: (§1) 80 healthy SD rats including half males and half females with a body weight of 230 g±10 g were selected and divided into a blank group, a model group, embodiment group 1, embodiment group 2, embodiment group 3, comparative example group 1, comparative example group 2 and a positive control group, each group consisting of 10 rats. After the rats in each group were raised regularly for one week, each rat was intraperitoneally injected with 4% chloral hydrate at an injection dose of 10 ml/kg. The anesthetized rats were fixed in a supine position, and the rat necks were subjected to hair removal, disinfected with iodine alcohol, and longitudinally cut to expose tracheas. Except for the blank group, the rats in each group were pierced with an injector by 1 cm toward the heart through a gap between two tracheal cartilage rings, and after resistance-free withdrawal, bleomycin was injected into the trachea at a dose of 5 mg/kg. The blank group was injected with an equal volume of normal saline. Immediately after injection, the rats were rotated upright for 5 min to fully distribute the medicament in the lungs. Various layers of tissues were sutured, and local alcohol disinfection was performed. […]

[2] = test system: rat models of pulmonary fibrosis; assay: Lung coefficient in bleomycin-induced rat models of pulmonary fibrosis; conditions: wet lung weight/body weight x100%, bleomycin rats, intragastric 5 mL/kg daily
Excerpt: (§2) The present experimental example explored the influence of the plant extract solution prepared in Embodiments 1-3 on the body weight and lung coefficient of rats. The method was as follows:
as §1

[3] = test system: rat models of pulmonary fibrosis; assay: Body weight in bleomycin-induced rat models of pulmonary fibrosis
Excerpt: as §2
80 healthy SD rats including half males and half females with a body weight of 230 g±10 g were selected and divided into a blank group, a model group, embodiment group 1, embodiment group 2, embodiment group 3, comparative example group 1, comparative example group 2 and a positive control group, each group consisting of 10 rats. After the rats in each group were raised regularly for one week, each rat was intraperitoneally injected with 4% chloral hydrate at an injection dose of 10 ml/kg. The anesthetized rats were fixed in a supine position, and the rat necks were subjected to hair removal, disinfected with iodine alcohol, and longitudinally cut to expose tracheas. Except for the blank group, the rats in each group were pierced with an injector by 1 cm toward the heart through a gap between two tracheal cartilage rings, and after resistance-free withdrawal, bleomycin was injected into the trachea at a dose of 5 mg/kg. The blank group was injected with an equal volume of normal saline. Immediately after injection, the rats were rotated upright for 5 min to fully distribute the medicament in the lungs. Various layers of tissues were sutured, and local alcohol disinfection was performed. 24 hours after modeling, the rats in the blank group and the model group were intragastrically administered with normal saline at a dose of 5 mL/kg every day, the rats in the positive control group were intragastrically administered with prednisone acetate at a dose of 5 mL/kg every day, and the rats in embodiment groups 1-3 and comparative example groups 1-2 were intragastrically administered with corresponding plant extract at a dose of 5 mL/kg continuously for 28 d. During this period, the rats in each group were raised according to a conventional method.
(1) Body weight: weighed the rats in each group on the day of intragastric administration, and weighed the rats in each group every 7 d.

## CC(=O)OCC(=O)[C@@]1(O)CC[C@H]2[C@@H]3CCC4=CC(=O)C=C[C@]4(C)[C@H]3C(=O)C[C@@]21C [Positive control group, prednisone acetate]
[1]
  Hydroxyproline content: 0.847 µg/mg
[2]; day 14
  Lung coefficient on the 14th day: 0.568%
[2]; day 28
  Lung coefficient on the 28th day: 0.594%
[3]; baseline, day of first intragastric administration, 24 h after bleomycin 5 mg/kg intratracheal
  Initial weight: 228.1 g
[3]; bleomycin rats, intragastric 5 mL/kg daily, day 7
  Weight on the 7th day: 253.2 g
[3]; bleomycin rats, intragastric 5 mL/kg daily, day 14
  Weight on the 14th day: 260.7 g
[3]; bleomycin rats, intragastric 5 mL/kg daily, day 21
  Weight on the 21st day: 267.6 g
[3]; bleomycin rats, intragastric 5 mL/kg daily, day 28
  Weight on the 28th day: 273.2 g
